Experiments:
Test in all cases: Kinase selectivity, DiscoverX scanMAX Kinase assay panel (% control)
Type in all cases: binding
[1] = molecular target: T1, kinases of the scanMAX Kinase assay panel (Homo sapiens, UniProt O75116); settings: kinase ROCK2; 1 uM in DMSO
T1 construct: purchased DiscoverX Co. (contract measurement) scanMAX Kinase assay panel
Method in brief: (§1)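 Read-out is % control, normalised so a positive-control compound sits at 0% and DMSO at 100%: (test − positive)/(negative − positive)×100. Each kinase received the compound at 1 uM in DMSO. A value below 35% counts as activity.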

[2] = molecular target: T2, kinases of the scanMAX Kinase assay panel (Homo sapiens, UniProt P36888, R834Q); settings: FLT3(R834Q); 1 uM
T2 construct: purchased DiscoverX Co. (contract measurement) scanMAX Kinase assay panel
T2 sequence (P36888 27-993 R834Q): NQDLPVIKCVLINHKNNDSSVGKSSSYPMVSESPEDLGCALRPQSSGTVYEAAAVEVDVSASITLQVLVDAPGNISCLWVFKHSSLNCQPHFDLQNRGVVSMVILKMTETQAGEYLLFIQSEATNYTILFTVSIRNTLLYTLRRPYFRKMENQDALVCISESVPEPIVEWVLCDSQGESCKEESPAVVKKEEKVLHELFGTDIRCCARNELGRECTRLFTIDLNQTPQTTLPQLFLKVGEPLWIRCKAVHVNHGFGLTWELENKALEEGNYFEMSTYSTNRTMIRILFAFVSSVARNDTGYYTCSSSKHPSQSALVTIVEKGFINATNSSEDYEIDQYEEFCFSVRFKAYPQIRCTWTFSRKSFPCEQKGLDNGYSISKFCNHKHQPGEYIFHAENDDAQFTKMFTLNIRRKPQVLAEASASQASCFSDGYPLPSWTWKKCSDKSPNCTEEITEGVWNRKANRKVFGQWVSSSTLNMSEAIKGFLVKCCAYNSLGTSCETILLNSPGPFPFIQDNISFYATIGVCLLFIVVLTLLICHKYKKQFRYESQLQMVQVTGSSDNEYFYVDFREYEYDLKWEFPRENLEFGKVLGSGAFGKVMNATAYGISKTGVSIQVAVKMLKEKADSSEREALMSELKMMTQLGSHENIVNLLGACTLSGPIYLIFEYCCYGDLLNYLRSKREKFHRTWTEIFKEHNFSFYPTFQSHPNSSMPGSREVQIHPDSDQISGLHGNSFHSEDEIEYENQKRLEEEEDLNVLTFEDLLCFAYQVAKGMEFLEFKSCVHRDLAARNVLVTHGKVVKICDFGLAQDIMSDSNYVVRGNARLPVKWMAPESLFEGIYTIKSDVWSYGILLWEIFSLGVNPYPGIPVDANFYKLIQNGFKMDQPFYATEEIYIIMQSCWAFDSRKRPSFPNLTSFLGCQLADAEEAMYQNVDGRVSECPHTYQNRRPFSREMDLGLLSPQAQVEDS
Method in brief: as §1

[3] = molecular target: T3, kinases of the scanMAX Kinase assay panel (Homo sapiens, UniProt Q9UL54); settings: kinase TAOK2; 1 uM in DMSO
T3 construct: purchased DiscoverX Co. (contract measurement) scanMAX Kinase assay panel
T3 sequence (Q9UL54 1-1235): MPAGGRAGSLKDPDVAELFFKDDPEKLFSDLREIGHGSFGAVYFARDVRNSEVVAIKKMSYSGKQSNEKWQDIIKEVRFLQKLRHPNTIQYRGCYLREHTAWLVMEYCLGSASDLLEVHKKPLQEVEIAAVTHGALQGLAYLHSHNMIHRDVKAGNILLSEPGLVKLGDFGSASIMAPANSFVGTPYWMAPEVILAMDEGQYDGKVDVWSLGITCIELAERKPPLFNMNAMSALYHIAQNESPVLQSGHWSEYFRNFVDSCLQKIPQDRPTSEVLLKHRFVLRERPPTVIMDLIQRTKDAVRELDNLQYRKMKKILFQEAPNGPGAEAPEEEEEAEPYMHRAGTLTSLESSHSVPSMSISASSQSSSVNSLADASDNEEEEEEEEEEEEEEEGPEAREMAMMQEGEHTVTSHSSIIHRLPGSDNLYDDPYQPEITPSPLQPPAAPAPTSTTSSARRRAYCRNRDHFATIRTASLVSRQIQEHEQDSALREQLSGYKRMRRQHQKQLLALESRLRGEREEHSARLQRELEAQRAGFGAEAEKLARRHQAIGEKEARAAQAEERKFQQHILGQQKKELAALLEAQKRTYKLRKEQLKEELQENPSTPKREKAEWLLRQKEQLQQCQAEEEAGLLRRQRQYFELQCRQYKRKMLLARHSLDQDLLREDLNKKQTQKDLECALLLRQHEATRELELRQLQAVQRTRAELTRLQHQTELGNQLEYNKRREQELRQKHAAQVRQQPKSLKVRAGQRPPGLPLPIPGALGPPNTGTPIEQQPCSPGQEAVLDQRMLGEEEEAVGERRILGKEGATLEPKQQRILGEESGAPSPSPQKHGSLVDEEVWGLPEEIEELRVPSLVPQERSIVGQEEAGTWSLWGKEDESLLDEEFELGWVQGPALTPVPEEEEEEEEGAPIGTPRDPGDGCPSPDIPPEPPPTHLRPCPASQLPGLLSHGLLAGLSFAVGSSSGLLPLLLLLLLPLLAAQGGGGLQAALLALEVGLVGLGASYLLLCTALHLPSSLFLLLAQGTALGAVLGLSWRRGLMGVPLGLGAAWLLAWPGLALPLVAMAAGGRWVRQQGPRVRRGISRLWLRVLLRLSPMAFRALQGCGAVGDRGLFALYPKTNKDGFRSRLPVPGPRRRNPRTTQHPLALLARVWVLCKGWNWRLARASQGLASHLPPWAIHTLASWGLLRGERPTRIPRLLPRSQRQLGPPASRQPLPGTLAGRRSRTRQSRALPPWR
Method in brief: as §1

[4] = molecular target: T4, kinases of the scanMAX Kinase assay panel (Homo sapiens, UniProt Q13882); settings: BRK; 1 uM
T4 construct: purchased DiscoverX Co. (contract measurement) scanMAX Kinase assay panel
T4 sequence (Q13882 whole entry): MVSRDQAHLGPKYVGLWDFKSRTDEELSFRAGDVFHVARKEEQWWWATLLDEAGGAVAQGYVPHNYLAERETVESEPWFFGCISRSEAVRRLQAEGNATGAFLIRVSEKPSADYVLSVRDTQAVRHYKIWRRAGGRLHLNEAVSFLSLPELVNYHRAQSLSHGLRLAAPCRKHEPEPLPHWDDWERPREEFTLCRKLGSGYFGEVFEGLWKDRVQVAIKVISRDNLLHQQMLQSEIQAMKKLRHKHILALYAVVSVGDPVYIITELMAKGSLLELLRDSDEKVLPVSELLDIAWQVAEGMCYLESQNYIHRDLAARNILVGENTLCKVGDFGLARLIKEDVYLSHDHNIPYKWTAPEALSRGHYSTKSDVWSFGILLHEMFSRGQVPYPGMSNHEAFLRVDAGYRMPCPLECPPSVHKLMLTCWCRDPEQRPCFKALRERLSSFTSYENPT
Method in brief: as §1

[5] = molecular target: T5, kinases of the scanMAX Kinase assay panel (Homo sapiens, UniProt P42684); settings: ABL2; 1 uM
T5 construct: purchased DiscoverX Co. (contract measurement) scanMAX Kinase assay panel
T5 sequence (P42684 whole entry): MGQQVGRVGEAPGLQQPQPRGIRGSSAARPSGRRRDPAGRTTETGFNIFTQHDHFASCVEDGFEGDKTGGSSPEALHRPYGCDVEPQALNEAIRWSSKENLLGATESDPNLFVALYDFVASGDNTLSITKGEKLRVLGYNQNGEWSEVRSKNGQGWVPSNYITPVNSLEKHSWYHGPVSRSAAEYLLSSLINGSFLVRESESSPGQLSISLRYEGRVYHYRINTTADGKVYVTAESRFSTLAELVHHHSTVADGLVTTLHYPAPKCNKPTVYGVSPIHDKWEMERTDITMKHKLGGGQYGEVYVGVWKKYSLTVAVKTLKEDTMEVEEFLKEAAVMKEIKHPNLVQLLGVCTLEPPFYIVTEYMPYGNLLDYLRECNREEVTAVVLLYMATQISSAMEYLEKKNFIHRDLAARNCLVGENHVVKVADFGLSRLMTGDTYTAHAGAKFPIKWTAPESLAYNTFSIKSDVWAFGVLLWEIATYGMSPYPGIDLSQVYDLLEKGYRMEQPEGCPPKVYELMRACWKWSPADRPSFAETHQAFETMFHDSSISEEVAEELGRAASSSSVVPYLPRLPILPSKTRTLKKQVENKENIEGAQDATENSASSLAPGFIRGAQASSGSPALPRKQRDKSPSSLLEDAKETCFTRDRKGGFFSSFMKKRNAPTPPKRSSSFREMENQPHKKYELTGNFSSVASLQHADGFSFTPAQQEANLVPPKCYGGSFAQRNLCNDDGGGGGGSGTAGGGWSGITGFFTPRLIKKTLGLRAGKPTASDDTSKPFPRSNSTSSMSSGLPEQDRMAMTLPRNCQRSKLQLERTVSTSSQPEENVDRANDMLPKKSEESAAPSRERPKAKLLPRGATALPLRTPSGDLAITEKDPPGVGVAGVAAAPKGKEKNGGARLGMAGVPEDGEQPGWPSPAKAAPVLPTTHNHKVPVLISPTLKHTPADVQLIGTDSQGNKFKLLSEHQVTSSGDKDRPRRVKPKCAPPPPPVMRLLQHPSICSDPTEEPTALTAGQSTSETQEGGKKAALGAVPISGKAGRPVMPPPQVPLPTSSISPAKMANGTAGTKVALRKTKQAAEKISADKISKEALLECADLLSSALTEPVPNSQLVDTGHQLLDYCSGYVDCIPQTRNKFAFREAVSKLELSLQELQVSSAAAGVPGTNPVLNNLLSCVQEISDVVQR
Method in brief: as §1

[6] = molecular target: T6, kinases of the scanMAX Kinase assay panel (Homo sapiens, UniProt P22455); settings: FGFR4; 1 uM
T6 construct: purchased DiscoverX Co. (contract measurement) scanMAX Kinase assay panel
T6 sequence (P22455 22-802): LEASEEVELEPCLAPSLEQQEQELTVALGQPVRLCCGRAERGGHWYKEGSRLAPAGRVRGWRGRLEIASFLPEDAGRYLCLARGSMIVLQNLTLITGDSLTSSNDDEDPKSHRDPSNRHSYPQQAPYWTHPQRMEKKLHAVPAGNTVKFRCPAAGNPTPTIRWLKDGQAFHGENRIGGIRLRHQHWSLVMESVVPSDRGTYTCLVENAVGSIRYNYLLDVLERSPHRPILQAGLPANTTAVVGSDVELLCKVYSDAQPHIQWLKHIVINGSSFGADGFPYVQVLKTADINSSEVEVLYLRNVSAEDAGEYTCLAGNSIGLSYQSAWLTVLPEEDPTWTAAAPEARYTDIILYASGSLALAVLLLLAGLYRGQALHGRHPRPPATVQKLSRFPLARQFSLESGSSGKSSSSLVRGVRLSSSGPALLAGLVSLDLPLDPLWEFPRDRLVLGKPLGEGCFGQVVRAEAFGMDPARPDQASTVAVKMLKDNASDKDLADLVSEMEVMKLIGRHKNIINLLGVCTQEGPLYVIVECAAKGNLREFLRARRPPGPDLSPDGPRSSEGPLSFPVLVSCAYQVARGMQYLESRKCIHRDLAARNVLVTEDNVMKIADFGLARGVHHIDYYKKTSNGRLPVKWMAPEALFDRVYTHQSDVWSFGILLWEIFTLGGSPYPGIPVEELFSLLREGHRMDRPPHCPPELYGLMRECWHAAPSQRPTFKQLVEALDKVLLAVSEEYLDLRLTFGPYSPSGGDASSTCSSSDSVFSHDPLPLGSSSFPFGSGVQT
Method in brief: as §1

[7] = molecular target: T7, kinases of the scanMAX Kinase assay panel (Homo sapiens, UniProt Q7KZI7); settings: MARK2; 1 uM
T7 construct: purchased DiscoverX Co. (contract measurement) scanMAX Kinase assay panel
T7 sequence (Q7KZI7 whole entry): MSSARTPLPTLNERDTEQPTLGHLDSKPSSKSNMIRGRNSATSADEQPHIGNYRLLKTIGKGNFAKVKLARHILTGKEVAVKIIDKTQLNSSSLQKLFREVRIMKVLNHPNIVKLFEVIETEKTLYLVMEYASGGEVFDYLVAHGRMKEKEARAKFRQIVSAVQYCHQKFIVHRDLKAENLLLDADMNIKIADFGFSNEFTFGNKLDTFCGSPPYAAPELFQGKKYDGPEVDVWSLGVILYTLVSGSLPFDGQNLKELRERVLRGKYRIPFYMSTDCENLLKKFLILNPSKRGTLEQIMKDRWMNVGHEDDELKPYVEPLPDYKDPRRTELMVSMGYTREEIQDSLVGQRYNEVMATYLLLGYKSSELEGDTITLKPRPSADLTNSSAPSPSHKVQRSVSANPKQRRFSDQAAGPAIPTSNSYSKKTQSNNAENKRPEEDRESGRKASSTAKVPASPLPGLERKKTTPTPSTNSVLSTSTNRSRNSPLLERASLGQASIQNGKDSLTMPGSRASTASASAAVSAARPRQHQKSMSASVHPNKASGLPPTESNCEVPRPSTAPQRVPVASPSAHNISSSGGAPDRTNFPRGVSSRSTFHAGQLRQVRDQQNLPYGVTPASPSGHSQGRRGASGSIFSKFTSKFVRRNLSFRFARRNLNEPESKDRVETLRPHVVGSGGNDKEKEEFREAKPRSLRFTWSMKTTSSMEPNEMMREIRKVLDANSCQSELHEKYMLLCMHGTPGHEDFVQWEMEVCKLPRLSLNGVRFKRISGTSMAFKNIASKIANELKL
Method in brief: as §1

T1 sequence (O75116 whole entry): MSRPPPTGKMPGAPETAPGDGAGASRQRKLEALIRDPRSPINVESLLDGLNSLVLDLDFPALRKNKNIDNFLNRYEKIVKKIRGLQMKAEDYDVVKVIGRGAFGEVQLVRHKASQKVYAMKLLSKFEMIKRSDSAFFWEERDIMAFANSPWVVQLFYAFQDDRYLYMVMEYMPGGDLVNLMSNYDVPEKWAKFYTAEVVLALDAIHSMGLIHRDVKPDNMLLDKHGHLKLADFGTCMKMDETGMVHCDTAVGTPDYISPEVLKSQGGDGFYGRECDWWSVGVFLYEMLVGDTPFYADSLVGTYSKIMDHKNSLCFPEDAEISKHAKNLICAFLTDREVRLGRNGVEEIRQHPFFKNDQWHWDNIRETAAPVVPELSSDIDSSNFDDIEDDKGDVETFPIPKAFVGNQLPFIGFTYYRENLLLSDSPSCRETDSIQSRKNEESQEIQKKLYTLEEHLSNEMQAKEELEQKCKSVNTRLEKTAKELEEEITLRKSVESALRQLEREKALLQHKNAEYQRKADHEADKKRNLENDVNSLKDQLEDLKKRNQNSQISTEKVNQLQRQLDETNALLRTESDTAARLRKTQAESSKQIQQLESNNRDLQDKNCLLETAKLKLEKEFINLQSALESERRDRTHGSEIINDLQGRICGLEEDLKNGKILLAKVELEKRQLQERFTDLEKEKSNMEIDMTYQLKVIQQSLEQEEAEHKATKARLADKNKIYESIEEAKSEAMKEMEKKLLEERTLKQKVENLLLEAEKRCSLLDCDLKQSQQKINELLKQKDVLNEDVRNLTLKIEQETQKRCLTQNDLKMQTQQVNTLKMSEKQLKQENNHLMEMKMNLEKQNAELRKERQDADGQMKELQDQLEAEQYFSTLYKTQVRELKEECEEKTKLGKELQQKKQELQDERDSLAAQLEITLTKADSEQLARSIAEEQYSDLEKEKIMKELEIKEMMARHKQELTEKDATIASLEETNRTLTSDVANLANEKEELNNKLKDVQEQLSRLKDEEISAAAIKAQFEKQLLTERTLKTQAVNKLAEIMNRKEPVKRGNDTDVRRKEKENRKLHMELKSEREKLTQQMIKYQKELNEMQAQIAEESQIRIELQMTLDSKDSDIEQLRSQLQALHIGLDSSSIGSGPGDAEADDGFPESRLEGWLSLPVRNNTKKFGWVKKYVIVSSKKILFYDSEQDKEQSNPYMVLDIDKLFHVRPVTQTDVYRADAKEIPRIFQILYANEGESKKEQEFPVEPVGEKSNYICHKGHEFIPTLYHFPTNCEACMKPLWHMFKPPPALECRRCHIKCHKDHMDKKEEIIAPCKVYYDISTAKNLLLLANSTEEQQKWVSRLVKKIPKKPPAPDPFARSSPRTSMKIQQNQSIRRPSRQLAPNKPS

`CCNc1nc(Nc2ccc(C(=O)N3CCC(N4CCOCC4)CC3)cc2OC)nc2[nH]cc(C(F)(F)F)c12` [Example 104, (4-((4-(ethylamino)-5-(trifluoromethyl)-7H-pyrrolo[2,3-d]pyrimidine-2-yl)amino)-3-methoxyphenyl)(4-morpholinopiperidine-1-yl)methanone] gave a remaining binding at 1 µM [1] of 100%, a remaining binding at 1 µM [2] of 100% and a remaining binding at 1 µM [3] of 87%. For the same compound, the remaining binding at 1 µM [4] was 64%, the remaining binding at 1 µM [5] was 100% and the remaining binding at 1 µM [6] was 38%. For the same compound, the remaining binding at 1 µM [7] was 81%.
With `CC1(Nc2nc(Nc3cnn([C@H]4CCN(C5COC5)C[C@@H]4F)c3Cl)nc3[nH]cc(C#N)c23)CC1` [Example 52, 2-((5-chloro-1-((3S,4S)-3-fluoro-1-(oxetane-3-yl)piperidine-4-yl)-1H-pyrazole-4-yl)amino)((1-methylcyclopropyl)amino)-7H-pyrrolo[2,3-d]pyrimidine-5-carbonitrile] the remaining binding at 1 µM [1] was 23%, the remaining binding at 1 µM [2] was 7.8% and the remaining binding at 1 µM [3] was 40%. The remaining binding at 1 µM [4] was 24%, the remaining binding at 1 µM [5] was 34% and the remaining binding at 1 µM [6] was 31%. The remaining binding at 1 µM [7] was 9.5%.
Work on `CNc1nc(Nc2ccc(C(=O)N3CCOCC3)cc2OC)nc2[nH]cc(C#N)c12` [Example 1, 2-((2-methoxy-4-(morpholine-4-carbonyl)phenyl)amino)-4-(methylamino)-7H-pyrrolo[2,3-d]pyrimidine-5-carbonitrile] yielded a remaining binding at 1 µM [1] of 56%, a remaining binding at 1 µM [2] of 65% and a remaining binding at 1 µM [3] of 78%. For the same compound, the remaining binding at 1 µM [4] was 93%, the remaining binding at 1 µM [5] was 99% and the remaining binding at 1 µM [6] was 89%. It also gave a remaining binding at 1 µM [7] of 100%.
